Data reported in US12161641B2, “Treatments and prevention of opioid neonatal abstinence syndrome” (Ohio State Innovation Foundation, priority 2016, dated 2024).

Assay: Time-course of drug levels in adult and embryonic mouse plasma, brain and liver after a single subcutaneous injection (LC-MS/MS)
Details: mouse, 10 mg/kg
[1] = female, brain (adult), subcutaneous
[2] = female, liver (adult), subcutaneous

O=C1CC[C@@]2(O)[C@H]3Cc4ccc(O)c5c4[C@@]2(CCN3CC2CC2)[C@H]1O5 [Naltrexone, naltrexone, reference compound]
concentration at 20 min [1]: 3230 ng/g
concentration at 45 min [1]: 1470 ng/g
concentration at 2 h [1]: 250 ng/g
concentration at 4 h [1]: 18 ng/g
concentration at 20 min (female, in vivo): 1880 ng/g
concentration at 45 min (female, in vivo): 620 ng/g
concentration at 2 h (female, in vivo): 130 ng/g
concentration at 4 h (female, in vivo): 4 ng/g
concentration at 20 min [2]: 2100 ng/g
concentration at 45 min [2]: 1390 ng/g
concentration at 2 h [2]: 360 ng/g
concentration at 4 h [2]: 32 ng/g
concentration at 45 min (embryo brain, subcutaneous): 2610 ng/g
concentration at 2 h (embryo brain, subcutaneous): 500 ng/g
concentration at 45 min (embryo liver, subcutaneous): 3190 ng/g
concentration at 2 h (embryo liver, subcutaneous): 620 ng/g
